# PubChem BioAssay (NCI)
#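 Method: 48-hour compound exposure of cells in 96-well plates, five concentrations, linear interpolation of endpoints. Abbreviation: GI50, concentration required for 50% inhibition of growth. TGI: total growth inhibition.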
# Tests used:
# Assay in all cases: NCI-60 cell line screen, 48 h
# NCI/ADR-RES ovarian = test system: NCI/ADR-RES ovarian
# MCF7 breast = test system: MCF7 breast
# K-562 leukemia = test system: K-562 leukemia
# SK-MEL-28 melanoma = test system: SK-MEL-28 melanoma
# HCC-2998 colon = test system: HCC-2998 colon
# A498 renal = test system: A498 renal
# EKVX NSCLC = test system: EKVX NSCLC
# KM12 colon = test system: KM12 colon
# RPMI-8226 leukemia = test system: RPMI-8226 leukemia
# SNB-19 CNS = test system: SNB-19 CNS
# MDA-MB-231 breast = test system: MDA-MB-231 breast
# PC-3 prostate = test system: PC-3 prostate
# UACC-62 melanoma = test system: UACC-62 melanoma
# IGROV1 ovarian = test system: IGROV1 ovarian
# OVCAR-5 ovarian = test system: OVCAR-5 ovarian
# COLO 205 colon = test system: COLO 205 colon
# HCT-116 colon = test system: HCT-116 colon
# TK-10 renal = test system: TK-10 renal
# SK-OV-3 ovarian = test system: SK-OV-3 ovarian
# SK-MEL-5 melanoma = test system: SK-MEL-5 melanoma
# HT29 colon = test system: HT29 colon
# ACHN renal = test system: ACHN renal
# SK-MEL-2 melanoma = test system: SK-MEL-2 melanoma
# RXF 393 renal = test system: RXF 393 renal
# NCI-H23 lung = test system: NCI-H23 lung
# T-47D breast = test system: T-47D breast
# CAKI-1 renal = test system: CAKI-1 renal
# MDA-MB-435 = test system: MDA-MB-435
# NCI-H226 lung = test system: NCI-H226 lung
smiles,measurement,setting,value
Cc1ncc(NC(=O)c2ccc(CN3CCN(C)CC3)c(C(F)(F)F)c2)cc1Nc1nccc(-c2cccnc2)n1,GI50,NCI/ADR-RES ovarian,17.8 µM
same,TGI,NCI/ADR-RES ovarian,34.8 µM
same,GI50,MCF7 breast,13.8 µM
same,TGI,MCF7 breast,28.7 µM
same,TGI,K-562 leukemia,> 100 µM
same,GI50,SK-MEL-28 melanoma,12.7 µM
same,TGI,SK-MEL-28 melanoma,25.4 µM
same,GI50,HCC-2998 colon,13.4 µM
same,TGI,HCC-2998 colon,26.6 µM
same,GI50,A498 renal,20.1 µM
same,TGI,A498 renal,34.9 µM
same,GI50,EKVX NSCLC,17.4 µM
same,TGI,EKVX NSCLC,31.4 µM
same,GI50,KM12 colon,15.3 µM
same,TGI,KM12 colon,30.2 µM
same,GI50,RPMI-8226 leukemia,10 µM
same,TGI,RPMI-8226 leukemia,49.7 µM
same,GI50,SNB-19 CNS,18 µM
same,TGI,SNB-19 CNS,32.1 µM
same,GI50,MDA-MB-231 breast,12.5 µM
same,TGI,MDA-MB-231 breast,27.3 µM
same,GI50,PC-3 prostate,16.9 µM
same,TGI,PC-3 prostate,32.9 µM
same,GI50,UACC-62 melanoma,13.2 µM
same,TGI,UACC-62 melanoma,26.2 µM
same,GI50,IGROV1 ovarian,10.7 µM
same,TGI,IGROV1 ovarian,24.4 µM
same,GI50,OVCAR-5 ovarian,15.8 µM
same,TGI,OVCAR-5 ovarian,29.7 µM
same,GI50,COLO 205 colon,5.55 µM
same,TGI,COLO 205 colon,21.6 µM
same,GI50,HCT-116 colon,7.92 µM
same,TGI,HCT-116 colon,21.7 µM
same,GI50,TK-10 renal,21.6 µM
same,TGI,TK-10 renal,39.1 µM
same,GI50,SK-OV-3 ovarian,19.3 µM
same,TGI,SK-OV-3 ovarian,34.2 µM
same,GI50,SK-MEL-5 melanoma,16.3 µM
same,TGI,SK-MEL-5 melanoma,30.2 µM
same,GI50,HT29 colon,2.81 µM
same,TGI,HT29 colon,21.8 µM
same,GI50,ACHN renal,14.2 µM
same,TGI,ACHN renal,27.3 µM
same,GI50,SK-MEL-2 melanoma,14.7 µM
same,TGI,SK-MEL-2 melanoma,29.4 µM
same,GI50,RXF 393 renal,11.1 µM
same,TGI,RXF 393 renal,23.8 µM
same,GI50,NCI-H23 lung,14.2 µM
same,TGI,NCI-H23 lung,28.3 µM
same,GI50,T-47D breast,17.9 µM
same,TGI,T-47D breast,37.5 µM
same,GI50,CAKI-1 renal,13.7 µM
same,TGI,CAKI-1 renal,26.7 µM
same,GI50,MDA-MB-435,12 µM
same,TGI,MDA-MB-435,24.4 µM
same,GI50,NCI-H226 lung,19.5 µM
